The values below come from patent publication US10364256B2 (GlaxoSmithKline Intellectual Property Development Limited, priority 2015, dated 2019).

Each structure is given as a SMILES string. Where two headings read alike, the source gives them in different places.

Test [1] relates to NQO1 specific enzyme activity in BEAS-2B cells (marker for NRF2 activation). Put plainly: BEAS-2B NQO1 MTT Assay. Type of test: cell-based. To be noted: compound incubated 48 hours, read-out: EC50 (NQO1 specific enzyme activity induction). An excerpt:
BEAS-2B NQO1 MTT Assay NAD(P)H:quinone oxidoreductase 1 (NQO1), also called DT diaphorase, is a homodimeric FAD-containing enzyme that catalyzes obligatory NAD(P)H-dependent two-electron reductions of quinones and protects cells against the toxic and neoplastic effects of free radicals and reactive oxygen species arising from one-electron reductions. The transcription of NQO1 is finely regulated by NRF2, and thus NQO1 activity is a good marker for NRF2 activation. On day one, frozen BEAS-2B cells (ATCC) are thawed in a water bath, counted, and re-suspended at a concentration of 250,000 cells/mL. Fifty microliters of cells are plated in 384 well black clear-bottomed plates. Plates are incubated at 37° C., 5% CO2 overnight. On day two, plates are centrifuged and 50 nL of compound or controls are added to the cells. Plates are then incubated at 37° C., 5% CO2 for 48 hours. On day four, medium is aspirated from the plate and crude cell lysates are made by adding 13 uL of 1× Cell Signaling Technologies lysis buffer with 1 Complete, Mini, EDTA-free Protease Inhibitor Tablet (Roche) for each 10 mL of lysis buffer. After lysis plates are incubated for 20 minutes at room temperature. Two microliters of lysate are removed for use in Cell Titer Glo assay (Promega) and MTT cocktail is prepared (Prochaska et. al. 1998) for measurement of NQO1 activity. Fifty microliters of MTT cocktail is added to each well, plate is centrifuged, and analyzed on an Envision plate reader (Perkin Elmer) using Absorbance 570 nm label for 30 minutes. Product formation is measured kinetically and the pEC50 of NQO1 specific activity induction is calculated by plotting the change in absorbance (Delta OD/min) versus the log of compound concentration followed by 3-parameter fitting. pEC50 is the negative log of the EC50.

Test [2] deals with T1, Keap1 Kelch domain (321-609) / TAMRA-labeled 16mer NRF2 peptide (ETGE motif) (Homo sapiens, UniProt Q14145).
T1 construct: the Kelch domain (321-609) of Keap1 is used
T1 sequence (Q14145 321-609): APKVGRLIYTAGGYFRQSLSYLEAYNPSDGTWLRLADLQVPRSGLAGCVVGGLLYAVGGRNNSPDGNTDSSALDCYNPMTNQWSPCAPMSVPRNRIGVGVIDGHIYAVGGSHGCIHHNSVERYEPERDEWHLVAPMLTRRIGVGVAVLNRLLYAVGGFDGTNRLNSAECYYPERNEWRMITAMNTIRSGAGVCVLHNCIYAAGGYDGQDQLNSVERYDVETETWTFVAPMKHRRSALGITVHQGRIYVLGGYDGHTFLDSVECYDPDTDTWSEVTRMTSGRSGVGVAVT
Briefly: NRF2-Keap1 FP Assay (Keap1 Kelch fluorescence polarization). The test is classed as binding. To be noted: 20 nM Keap1 (321-609), 8 nM Tamra labeled peptide. An excerpt: One model for the NRF2-Keap1 interaction is through two binding sites in the Neh2 domain on NRF2. The two sites are referred to as the DLG binding motif (latch domain, uM affinity) and the ETGE binding motif (hinge domain, nM affinity). The Keap1 protein consists of an N-terminal region (NTR), a broad complex, tramtrack, and brick a′ brac domain (BTB), an intervening region (IVR), a double glycine repeat domain (DGR or Kelch), and a C-terminal region. The DLG and ETGE motifs of NRF2's Neh2 domain bind to the Kelch domain of Keap1 at different affinities. In the Keap1 Kelch fluorescence polarization (FP) assay, a TAMRA-labeled 16mer peptide (AFFAQLQLDEETGEFL) containing the ETGE motif of NRF2 and the Kelch domain (321-609) of Keap1 is used. The assay determines if a compound interferes with the binding between Keap1 […] and the TAMRA-labeled peptide. Binding of TAMRA-labeled NRF2 peptide to Keap1 (321-609) results in a high FP signal. If a compound interferes with the binding between the peptide and the protein, it will cause the assay signal to decrease. Thus, assay signal is inversely proportional to binding inhibition.
100 nl of 100× compound dose response curves (serial 3-fold dilutions) in DMSO are stamped using an Echo liquid handling system (Labcyte) into 384-well low volume black assay plates (Greiner, #784076), with DMSO in columns 6 and 18. The top concentration of compound is located in columns 1 and 13. Keap1 (321-609) is diluted to 40 nM (2×) in 1× assay buffer (50 mM Tris, pH 8.0, 100 mM NaCl, 5 mM MgCl2, 1 mM DTT, 2 mM CHAPS, and 0.005% BSA) and 5 ul is added using a Multidrop Combi (Thermo Electron Corporation) equipped with a metal tip dispenser to all wells of the compound plate, except column 18. Column 18 receives only 5 ul of assay buffer. Immediately, 5 uL of 16 nM (2×) of Tamra labeled peptide (AFFAQLQLDEETGEFL, 21st Century Biochemicals) is added to all wells of the plate. The plates are spun at 500 rpm for 1 min, incubated for 1 hr at room temperature, and read on an Analyst GT (Molecular Devices) equipped with excitation (530/25 nm) and emission (580/10 nm) filters designed for Tamra probes. A 561 nm dichroic mirror is also used in the Analyst. The final assay concentrations of Keap1 (321-609) and Tamra labeled peptide are 20 nM and 8 nM, respectively. Fluorescence measurements, represented as mP, are used in the transformation of the data. Compound activity is calculated based on percent inhibition, normalized against controls in the assay (Control 1 contains the Tamra peptide and Keap1 (321-609) together (0% response) and control 2 contains the Tamra peptide alone (100% response)). Data analysis is handled using the software package Abase XE (Surrey, United Kingdom. The % inhibition values are calculated by the equation: 100−(100*((compound response−average control 2)/(average control 1−average control2))). For calculation of pIC50s, Abase XE uses a four parameter equation. pIC50 is the negative log of the IC50.

Broadly, the EC50 is the concentration needed to bring the measured effect to its halfway point. As usually defined, the IC50 is the concentration that inhibits the measured activity by half. Low values mean higher potency, high ones lower potency.

Turning to `CCC[C@@H]1CCCCN1C(=O)c1cccc(-c2cccc(-n3ncc(C(=O)O)c3[C@@H]3C[C@H]3c3cn(C)nn3)c2)c1` (racemic) [Example 199, 5-((1,2-trans)-2-(1-methyl-1H-1,2,3-triazol-4-yl)cyclopropyl)-1-(3′-((R)-2-propylpiperidine-1-carbonyl)-[1,1′-biphenyl]-3-yl)-1H-pyrazole-4-carboxylic acid], in test [1] (Homo sapiens, BEAS-2B, 48 h), the EC50 lay in the range of 10 to 100 nM.

As to `CC(Cc1cccc(-c2cccc(-n3ncc(C(=O)O)c3[C@@H]3C[C@H]3c3cn(C)nn3)c2)c1)C1CCCCC1` (single isomer, unassigned) [Example 116f, 1-(3′-((R) or (S)-2-Cyclohexylpropyl)-[1,1′-biphenyl]-3-yl)-5-((1R,2R)-2-(1-methyl-1H-1,2,3-triazol-4-yl)cyclopropyl)-1H-pyrazole-4-carboxylic Acid], the EC50 in test [1] lay in the range of 1 to 10 nM. Also, in test [2], the IC50 is 10 to 100 nM.

Regarding `C[C@H]1Cc2ccccc2S(=O)(=O)N(Cc2cccc(-c3cccc(-n4ncc(C(=O)O)c4[C@@H]4C[C@H]4c4cn(C)nn4)c3)c2)C1` (racemic) [Example 136, 1-(3′-(((S)-4-methyl-1,1-dioxido-4,5-dihydrobenzo[f][1,2]thiazepin-2(3H)-yl)methyl)-[1,1′-biphenyl]-3-yl)-5-((1,2-trans)-2-(1-methyl-1H-1,2,3-triazol-4-yl)cyclopropyl)-1H-pyrazole-4-carboxylic acid], in test [1] (Homo sapiens), the EC50 fell in the range of 100 to 1000 nM.

For `C[C@H](Oc1cccc(-c2cccc(-n3ncc(C(=O)O)c3[C@@H]3C[C@H]3c3c[nH]nn3)c2)c1)C1CCCCC1` (racemic) [Example 93, 5-(trans-2-(1H-1,2,3-Triazol-4-yl)cyclopropyl)-1-(3′-((S)-1-cyclohexylethoxy)-[1,1′-biphenyl]-3-yl)-1H-pyrazole-4-carboxylic Acid], in test [1] (Homo sapiens), the half-maximal effective concentration (EC50) was 1 to 10 nM.

As for `C[C@H](Oc1cccc(-c2cccc(-n3ncc(C(=O)O)c3[C@@H]3C[C@H]3c3cn(C4CC4)nn3)c2)c1)C1CCCCC1` (racemic) [Example 79, 1-(3′-((S)-1-Cyclohexylethoxy)-[1,1′-biphenyl]-3-yl)-5-(trans-2-(1-cyclopropyl-1H-1,2,3-triazol-4-yl)cyclopropyl)-1H-pyrazole-4-carboxylic acid], the EC50 in test [1] (Homo sapiens) was 1 to 10 nM.

For the compound `C[C@@H]1Cc2ccccc2S(=O)(=O)N(Cc2cccc(-c3cccc(-n4ncc(C(=O)O)c4[C@@H]4C[C@H]4c4cn(C)nn4)c3)c2)C1` (racemic) [Example 137, 1-(3′-(((R)-4-methyl-1,1-dioxido-4,5-dihydrobenzo[f][1,2]thiazepin-2(3H)-yl)methyl)-[1,1′-biphenyl]-3-yl)-5-((1,2-trans)-2-(1-methyl-1H-1,2,3-triazol-4-yl)cyclopropyl)-1H-pyrazole-4-carboxylic acid], in test [1] (Homo sapiens), the EC50 is 10 to 100 nM.

As to `C[C@H](Oc1cccc(-c2cccc(-n3ncc(C(=O)O)c3[C@@H]3C[C@H]3c3cn(C4CCOCC4)nn3)c2)c1)C1CCCCC1` (racemic) [Example 83, 1-(3′-((S)-1-Cyclohexylethoxy)-[1,1′-biphenyl]-3-yl)-5-(trans-2-(1-(tetrahydro-2H-pyran-4-yl)-1H-1,2,3-triazol-4-yl)cyclopropyl)-1H-pyrazole-4-carboxylic acid], in test [1] (Homo sapiens), the EC50 was in the range of 1 to 10 nM.

Take `C[C@H](Oc1cccc(-c2cccc(-n3ncc(C(=O)O)c3[C@@H]3C[C@H]3c3cn(CC(F)(F)F)nn3)c2)c1)C1CCCCC1` (racemic) [Example 89, 1-(3′-((S)-1-Cyclohexylethoxy)-[1,1′-biphenyl]-3-yl)-5-(trans-2-(1-(2,2,2-trifluoroethyl)-1H-1,2,3-triazol-4-yl)cyclopropyl)-1H-pyrazole-4-carboxylic acid]: in test [1] (Homo sapiens), the EC50 was 1 to 10 nM.

Regarding `C[C@H](Oc1cccc(-c2cccc(-n3ncc(C(=O)O)c3[C@@H]3C[C@H]3c3cn(C)nn3)c2)c1)C1CCCCC1` (racemic) [Example 75, 1-(3′-((S)-1-Cyclohexylethoxy)-[1,1′-biphenyl]-3-yl)-5-(trans-2-(1-methyl-1H-1,2,3-triazol-4-yl)cyclopropyl)-1H-pyrazole-4-carboxylic Acid], the EC50 in test [1] (Homo sapiens, BEAS-2B, 48 h) was in the range of 1 to 10 nM.
